Reference: patent US20260000685A1, “PHARMACEUTICAL COMPOSITION FOR PREVENTING OR TREATING DEGENERATIVE BRAIN DISEASES, COMPRISING CANNABINOIDS AS ACTIVE INGREDIENT, AND USES THEREOF” (NEOCANNBIO CO., LTD., priority 2022, published 2026)

Assays:
[1] = test system: phosphorylated tau (p-Tau); test: Western blotting of Tau/p-Tau in Aβ1-42-treated primary neuronal cells; type: cell-based, ICR mice; conditions: with Aβ1-42 (5 μM), 24 hours; compared to Aβ1-42 alone; FIG. 7
Protocol: (§1) To conduct Western blotting, tissues were homogenized in radioimmunoprecipitation assay buffer (Cell Signaling) to acquire tissue lysates. Tissue protein concentrations were determined using the Bio-Rad protein assay (Bio-Rad, Hercules, CA, USA), and Western blot analysis was conducted using 80-120 μg of protein. Next, the Western blotting samples prepared using the proteins were separated using 12% SDS-PAGE and transferred to a polyvinylidene fluoride membrane (PVDF) (Merck Millipore, Burlington, MA, USA; 0.4 μm). The PVDF was blocked with tris-buffered saline including 5% bovine serum albumin and Tween-20, and incubated with primary antibodies overnight at 4° C. After primary antibody incubation, the samples were incubated with HRP-conjugated secondary antibody (Sigma; 1:5000) for 1 hour at room temperature, and immunodetection was conducted using an enhanced chemiluminescence detection kit (GE Healthcare, Chicago, IL, USA).
Specifically, primary neuronal cells derived from ICR mice were cultured for 6 days, and then treated with CBDA, THCA, THC, or CBN compounds while treating with Aβ1-42 (5 μM), and treated together for 24 hours. Next, to confirm the expression levels of Tau and phosphorylated Tau (p-Tau) in the cells, Western blotting was conducted using the method disclosed in Example 4 above.

[2] = test system: amyloid beta (Aβ); test: Western blotting of Aβ expression in Aβ1-42-treated primary neuronal cells; type: cell-based, ICR mice; conditions: with Aβ1-42 (5 μM), 24 hours; compared to Aβ1-42 alone; FIG. 5
Protocol: Specifically, primary neuronal cells derived from ICR mice were cultured for 6 days, and then treated with CBDA, THCA, THC, or CBN compounds while treating with Aβ1-42 (5 μM), and treated together for 24 hours. Next, Western blotting was conducted to confirm the expression levels of APP (Amyloid Precursor Protein), polymeric Aβ, and oligomeric AB in the cells.
as §1

[3] = test system: primary neuronal cells; test: Inhibition of Aβ1-42-induced neuron apoptosis (MTS cell viability); type: cell-based, ICR mice; conditions: different concentrations with Aβ1-42 (5 μM), 24 hours; compared to control treated with Aβ1-42 alone; FIG. 2
Protocol: Specifically, primary neuronal cells derived from ICR mice were seeded in 96-wells at 5×10^5 cells per well and cultured for 6 days. Afterwards, the six compounds of Example 1 above were treated at different concentrations and Aβ1-42 (5 μM) was treated to induce neuron apoptosis, and the cells were treated together for 24 hours. Afterwards, a MTS solution was added to the medium and incubated for 2 hours. Cytotoxicity (cell viability) was measured using a microplate spectrophotometer (Bio-Tek Power Wave XS, Winooski, VT, USA), and absorbance was measured at 490 nm.
Next, the neuron apoptosis inhibition efficacy for the same concentration of CBDA, CBD, THCA and THC was evaluated using the same method as above. Memantine, known as an Alzheimer's treatment, was used as a positive control group.

[4] = test system: primary cortical neuron cells; test: Intracellular calcium concentration in neuronal cells (fluo-4 AM fluorescence imaging); type: cell-based; conditions: CBDA (6.25 μM), THCA (12.5 μM), THC (12.5 μM) with Aβ1-42 (5 μM), 24 hours; compared to Aβ1-42 alone; FIG. 8 and 9
Protocol: Specifically, primary cortical neuron cells were seeded in 96-wells at 5×10^5 cells per well and cultured for 6 days. […] Next, to measure the concentration of calcium ions in neuronal cells by detecting Ca^2+ using fluorescence imaging, the cells were washed with PBS and treated with 10 μM Ca^2+ indicator fluo-4 AM (Thermo) for […]. The stained sections were washed with PBS, covered with Prolong Gold Antifide Reagent (Invitrogen, Carlsbad, CA, USA) including DAPI nuclear stain, and observed using a microscope (Carl Zeiss, Oberkochen, Germany). Fluo-4 AM fluorescence signal intensity was measured using the Image J analysis program (National Institute of Health, Bethesda, […], USA).

| Compound | phosphorylation level of p-Tau [1] | expression level of AB [2] | cell survival rate level [3] | expression level of p-Tau [1] | intracellular calcium ion concentration [4] |
| --- | --- | --- | --- | --- | --- |
| CCCCCc1cc(O)c2c(c1)OC(C)(C)c1ccc(C)cc1-2 [CBN, 6,6,9-Trimethyl-3-pentyl-benzo[c]chromen-1-ol] | not | significantly reduced | significantly increased | – | – |
| CCCCCc1cc(O)c2c(c1)OC(C)(C)[C@@H]1CCC(C)=C[C@@H]21 [THC, (6aR, 10aR)-delta-9-Tetrahydrocannabinol] | significantly reduced | significantly reduced | significantly increased | significantly reduced | significantly reduced |
